{"source": "patent US7056532B1", "about": "“Compositions for delivery of biological agents and methods for the preparation thereof” (Univ. Nebraska Bd. of Regents, priority 1997, dated 2006)", "assay": "Binding isotherms of surfactants to block copolymer (ion-selective electrode)", "format": "physicochemical", "conditions": "FIG. 1, dodecyl- versus cetyl- substituent", "excerpt": "While not wishing to be bound by any particular theory, it is believed that the above-described surfactants and block copolymers of opposite charge form stable complexes due to cooperative binding. (See, e.g., Goddard, In Interactions of Surfactants with Polymers and Proteins. Goddard and Ananthapadmanabhan, Eds., pp. 171 et seq., CRC Press, Boca Raton, Ann Arbor, London, Tokyo, 1992). Cooperative binding occurs in the sense that binding of surfactant molecules to the block copolymer is enhanced by the presence of other molecules of the same or a different surfactant already bound to the same copolymer. According to the cooperative binding mechanism which is believed to underlie this invention, surfactant binds electrostatically to the oppositely charged P-type segments of the block copolymer to form supramolecular complexes. These complexes are cooperatively stabilized by the interactions of the hydrophobic parts of surfactant molecules bound to the same P-type segment with each other. Indeed, it appears that without these hydrophobic interactions, formation of the desired complex would not occur. FIG. 1 presents the binding isotherms for interaction of cetylpyridinium bromide and dodecylpyridinium bromide with the polyethylene oxide-block-poly(sodium methacrylate) block copolymer. […] This binding mechanism is, in particular, characteristic for surface active biological agents. […]", "data": [{"smiles": "CCCCCCCCCCCC[n+]1ccccc1.[Br-]", "note": "[dodecylpyridinium bromide]", "values": [{"measurement": "stability of the complex with polyethylene oxide-block-poly(sodium methacrylate)", "result": "decreases the stability of the complex more than ten-fold"}]}]}
